One molecule from publication PMC8740755 (Proceedings of the National Academy of Sciences of the …, 2021) can be followed below.

The assay addresses WipA (Legionella pneumophila, UniProt Q5ZS02).

WipA, sequence (Q5ZS02 1-520): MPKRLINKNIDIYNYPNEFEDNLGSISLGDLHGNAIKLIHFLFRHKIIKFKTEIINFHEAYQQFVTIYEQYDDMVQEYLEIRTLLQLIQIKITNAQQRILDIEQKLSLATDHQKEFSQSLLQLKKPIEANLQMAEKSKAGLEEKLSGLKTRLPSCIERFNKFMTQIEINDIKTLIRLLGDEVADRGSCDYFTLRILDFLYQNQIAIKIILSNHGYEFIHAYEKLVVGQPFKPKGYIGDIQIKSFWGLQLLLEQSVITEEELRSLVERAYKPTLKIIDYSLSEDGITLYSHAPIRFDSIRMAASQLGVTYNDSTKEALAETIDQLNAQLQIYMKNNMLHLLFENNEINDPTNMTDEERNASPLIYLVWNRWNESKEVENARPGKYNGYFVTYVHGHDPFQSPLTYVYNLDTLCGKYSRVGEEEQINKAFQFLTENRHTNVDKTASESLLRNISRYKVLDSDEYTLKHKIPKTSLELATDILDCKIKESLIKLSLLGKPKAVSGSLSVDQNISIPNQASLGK

In the case of `O=[N+]([O-])c1ccc(OP(=O)(O)O)cc1` [pNPP], the “free phosphate by malachite green assay” value is “exhibited robust activity, and a mutation in its active site abolished such activity”.
